The target of one assay is D2R (Homo sapiens, UniProt P14416). Particulars: cited from earlier work.
Assay [1] addresses T1, dopamine D2 receptor (D2R) (Homo sapiens, UniProt P14416).
T1 construct: linker […]; expressed in transfected cells; host or cells: HEK293
In kind it is cell-based. Conditions: FIG. 7B; single replicate, pilot experiment.

For a further assay, the target named is T2, δ opioid receptor (DOR) (Mus musculus, UniProt P32300).
T2 construct: influenza signal peptide (N); linker […]; expressed in transfected cells; host or cells: HEK293
T2 sequence (P32300 with tags, fused parts or gaps): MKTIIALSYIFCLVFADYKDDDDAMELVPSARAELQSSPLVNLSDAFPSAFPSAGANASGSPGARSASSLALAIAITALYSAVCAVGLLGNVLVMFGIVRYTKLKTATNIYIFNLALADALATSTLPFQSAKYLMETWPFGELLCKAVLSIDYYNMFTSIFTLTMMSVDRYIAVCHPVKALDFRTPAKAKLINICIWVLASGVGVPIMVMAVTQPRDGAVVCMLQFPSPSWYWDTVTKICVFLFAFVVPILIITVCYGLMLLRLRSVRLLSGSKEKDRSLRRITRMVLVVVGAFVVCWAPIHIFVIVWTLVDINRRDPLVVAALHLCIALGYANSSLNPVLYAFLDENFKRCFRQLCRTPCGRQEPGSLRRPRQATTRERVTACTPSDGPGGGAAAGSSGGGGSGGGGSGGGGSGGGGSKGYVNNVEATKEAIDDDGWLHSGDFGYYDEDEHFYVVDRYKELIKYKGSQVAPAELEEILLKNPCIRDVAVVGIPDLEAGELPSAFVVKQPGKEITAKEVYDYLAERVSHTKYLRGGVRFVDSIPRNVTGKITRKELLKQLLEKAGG
Briefly: ClickArr assay: simultaneous recruitment of Barr1 (508 nm) and Barr2 (620 nm) to DOR in triply transfected HEK293 cells. The class given is cell-based.

In assay [2] the target is T3, D2R-GSSGGGGSGGGGSGGGGSGGGG-CBGct(395-542) (human).
T3 construct: also called D2R-CBGct; dopamine D2 receptor
T3 chain: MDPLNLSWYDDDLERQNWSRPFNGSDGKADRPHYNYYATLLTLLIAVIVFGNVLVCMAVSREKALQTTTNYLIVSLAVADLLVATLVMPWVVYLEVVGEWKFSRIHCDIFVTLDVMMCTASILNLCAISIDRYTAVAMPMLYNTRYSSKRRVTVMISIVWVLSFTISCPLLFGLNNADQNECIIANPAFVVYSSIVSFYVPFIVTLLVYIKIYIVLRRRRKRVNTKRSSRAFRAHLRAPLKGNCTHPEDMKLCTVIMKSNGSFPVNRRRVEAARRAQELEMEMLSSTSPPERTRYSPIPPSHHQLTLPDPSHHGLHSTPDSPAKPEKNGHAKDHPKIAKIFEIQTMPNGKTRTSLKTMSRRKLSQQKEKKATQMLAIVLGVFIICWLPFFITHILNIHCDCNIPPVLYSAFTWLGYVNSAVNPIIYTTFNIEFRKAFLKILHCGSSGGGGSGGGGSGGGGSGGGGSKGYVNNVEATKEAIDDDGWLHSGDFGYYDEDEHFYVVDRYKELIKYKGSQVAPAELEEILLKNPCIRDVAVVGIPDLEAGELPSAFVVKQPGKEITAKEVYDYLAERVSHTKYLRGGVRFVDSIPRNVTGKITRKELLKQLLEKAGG
In words: split click beetle luciferase complementation (ClickArr), triply transfected cells, UNC9994 dose-response, single replicate.

In assay [3] the target is T4, Signal peptide + FLAG tag-KOR-GSSGGGGSGGGGSGGGGSGGGG-CBGct(395-542) (mouse).
T4 construct: also called kappa opioid receptor-CBGct; kappa opioid receptor
T4 chain: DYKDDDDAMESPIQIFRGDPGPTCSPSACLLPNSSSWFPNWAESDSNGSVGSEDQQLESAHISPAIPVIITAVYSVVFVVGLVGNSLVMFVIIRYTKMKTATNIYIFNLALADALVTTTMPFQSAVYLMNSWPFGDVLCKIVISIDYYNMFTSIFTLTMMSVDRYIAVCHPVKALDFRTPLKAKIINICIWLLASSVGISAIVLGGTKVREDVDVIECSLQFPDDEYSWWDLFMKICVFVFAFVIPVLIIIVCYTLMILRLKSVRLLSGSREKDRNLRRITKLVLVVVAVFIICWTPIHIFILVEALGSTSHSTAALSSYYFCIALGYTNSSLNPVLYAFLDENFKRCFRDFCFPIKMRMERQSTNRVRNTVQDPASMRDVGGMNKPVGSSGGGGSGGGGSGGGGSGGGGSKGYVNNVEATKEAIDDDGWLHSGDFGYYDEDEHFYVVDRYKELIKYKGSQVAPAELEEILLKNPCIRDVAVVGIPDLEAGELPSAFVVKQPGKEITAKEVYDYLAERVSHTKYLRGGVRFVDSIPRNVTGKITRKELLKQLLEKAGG
In words: split click beetle luciferase complementation (ClickArr), triply transfected cells, dynorphin17 dose-response, single replicate.

For assay [4], the target named is T5, 3xHA-AGTR1(2-360)-GSSGGGGSGGGGSGGGGSGGGG-CBGct(395-542) (human).
T5 construct: also called AGTR1-CBGct; angiotensin type 1 receptor
T5 chain: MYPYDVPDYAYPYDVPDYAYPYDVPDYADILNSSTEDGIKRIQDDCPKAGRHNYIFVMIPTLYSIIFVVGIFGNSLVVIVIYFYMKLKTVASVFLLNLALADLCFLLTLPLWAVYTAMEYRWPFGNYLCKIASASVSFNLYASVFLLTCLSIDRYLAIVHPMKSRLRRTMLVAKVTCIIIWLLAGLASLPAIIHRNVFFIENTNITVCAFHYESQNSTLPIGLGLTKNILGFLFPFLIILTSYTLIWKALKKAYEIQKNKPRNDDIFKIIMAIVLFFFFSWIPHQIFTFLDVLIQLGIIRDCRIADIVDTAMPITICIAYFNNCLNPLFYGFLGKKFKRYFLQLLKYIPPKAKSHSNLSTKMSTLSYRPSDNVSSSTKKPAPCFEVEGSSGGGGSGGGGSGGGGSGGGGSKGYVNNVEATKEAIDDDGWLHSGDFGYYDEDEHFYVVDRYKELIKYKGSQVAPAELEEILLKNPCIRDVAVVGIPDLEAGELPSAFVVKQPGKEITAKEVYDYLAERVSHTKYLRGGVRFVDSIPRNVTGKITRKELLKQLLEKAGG
In words: split click beetle luciferase complementation (ClickArr), triply transfected cells, angiotensin II dose-response, single replicate.

Assay [5] deals with T6, Signal peptide + FLAG tag-DOR-GSSGGGGSGGGGSGGGGSGGGG-CBGct(395-542) (mouse (Mus musculus)).
T6 construct: also called optimized DOR construct; DOR-CBGct
T6 chain: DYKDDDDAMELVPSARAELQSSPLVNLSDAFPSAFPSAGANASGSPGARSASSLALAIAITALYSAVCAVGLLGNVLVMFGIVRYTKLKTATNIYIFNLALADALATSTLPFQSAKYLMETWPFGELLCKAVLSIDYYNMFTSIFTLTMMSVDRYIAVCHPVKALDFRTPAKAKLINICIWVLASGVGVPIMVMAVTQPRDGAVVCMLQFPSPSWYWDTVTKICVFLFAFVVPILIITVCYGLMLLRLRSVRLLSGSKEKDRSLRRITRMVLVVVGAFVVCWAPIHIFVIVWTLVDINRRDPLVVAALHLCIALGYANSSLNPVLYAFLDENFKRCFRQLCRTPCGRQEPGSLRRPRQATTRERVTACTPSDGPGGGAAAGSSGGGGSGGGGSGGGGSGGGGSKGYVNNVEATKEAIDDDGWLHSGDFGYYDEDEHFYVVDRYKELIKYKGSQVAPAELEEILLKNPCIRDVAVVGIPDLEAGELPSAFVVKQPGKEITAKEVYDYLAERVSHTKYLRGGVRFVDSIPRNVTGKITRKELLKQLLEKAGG
Briefly: split click beetle luciferase complementation (ClickArr), kinetic read at 508 nm, triply transfected HEK293 cells, 32 µM leu-enkephalin or TAN67.

Regarding `Cl.Clc1cccc(C2CCN(CCCOc3ccc4scnc4c3)CC2)c1Cl` [UNC9994, 5-(3-(4-(2,3-dichlorophenyl)piperidin-1-yl)propoxy)benzo[d]thiazole hydrochloride], at D2R (Allen et al., PNAS 108(45): 18488-18493 (2011), read-out: Published potency value), the EC50 was 448 nM. Besides, the “log10 of published potency value” on D2R (log10 (M) of 448 nM, Allen et al. 2011) was ~−6.3. In assay [1], the “Potency of β-arrestin curves relative to published value” is given as “as potent or more potent than published values” and the “Response: fold change in dopamine receptor:β-arrestin signal” value is recorded as “showed a response”.

For `Br.Br.CN1CC[C@@]2(c3cccc(O)c3)Cc3nc4ccccc4cc3C[C@@H]2C1` (racemic) [TAN67, (R*,S*)-(±)-2-Methyl-4aa-(3-hydroxyphenyl)-1,2,3,4,4a,5,12,12aa-octahydroquinolino[2,3,3-g]isoquinoline dihydrobromide], the “Δ% efficacy Barr1-Barr2 compared to Leu-Enk” value at δ opioid receptor (DOR) (difference in maximum change in signal between arrestin isoforms, as a percentage of Leu-Enk, n=5-6 biological replicates, FIG. 5C) is listed as “significant difference in efficacy”. Also, the “Kinetics of Barr1 vs Barr2 recruitment (normalized β-arrestin signal over time)” value at δ opioid receptor (DOR) (saturating concentration (32 μM), n=6 replicates, FIGS. 6A, 6B) was “Recruitment of Barr1 is much slower than Barr2”.

B1: CBGnt(1-415)-SGGGGSGGGGSGGGGSGGGGS-Barr1 (other)
chain: MVKREKNVIYGPEPLHPLEDLTAGEMLFRALRKHSHLPQALVDVVGDESLSYKEFFEATVLLAQSLHNCGYKMNDVVSICAENNTRFFIPVIAAWYIGMIVAPVNESYIPDELCKVMGISKPQIVFTTKNILNKVLEVQSRTNFIKRIIILDTVENIHGCESLPNFISRYSDGNIANFKPLHFDPVEQVAAILCSSGTTGLPKGVMQTHQNICVRLIHALDPRVGTQLIPGVTVLVYLPFFHAFGFSITLGYFMVGLRVIMFRRFDQEAFLKAIQDYEVRSVINVPSVILFLSKSPLVDKYDLSSLRELCCGAAPLAKEVAEVAAKRLNLPGIRCGFGLTESTSANIHSLGDEFKSGSLGRVTPLMAAKIADRETGKALGPNQVGELCIKGPMVSKGYVNNVEATKEAIDDDGWLSGGGGSGGGGSGGGGSGGGGSGDKGTRVFKKASPNGKLTVYLGKRDFVDHIDLVDPVDGVVLVDPEYLKERRVYVTLTCAFRYGREDLDVLGLTFRKDLFVANVQSFPPAPEDKKPLTRLQERLIKKLGEHAYPFTFEIPPNLPCSVTLQPGPEDTGKACGVDYEVKAFCAENLEEKIHKRNSVRLVIRKVQYAPERPGPQPTAETTRQFLMSDKPLHLEASLDKEIYYHGEPISVNVHVTNNTNKTVKKIKISVRQYADICLFNTAQYKCPVAMEEADDTVAPSSTFCKVYTLTPFLANNREKRGLALDGKLKHEDTNLASSTLLREGANREILGIIVSYKVKVKLVVSRGGDVAVELPFTLMHPKPKEEPPHREVPENETPVDTNLIELDTNDDDIVFEDFARQRLKGMKDDKEEEEDGTGSPQLNNR
notes: also called optimized Barr1 construct; CBGnt-Barr1
As for B1, the binding result in assay [2], in assay [3], in assay [4] and in assay [5] was “binds” in each case.

The record behind these values is patent US20220326229A1, “ASSAY FOR REAL-TIME SIMULTANEOUS RECRUITMENT OF ARRESTIN ISOFORMS TO G PROTEIN-COUPLED RECEPTORS” (Purdue Research Foundation, priority 2021, published 2022).
